Data reported in US20260137687A1, “GTPase INHIBITORS AND USES THEREOF” (The Regents of The University of California, priority 2022, published 2026).

Tests used:
[1] = target: T1, K-Ras(G12R)·GDP (Homo sapiens, UniProt P01116, G12R); test: Differential scanning fluorimetry; format: binding
T1 construct: human K-Ras (G12R, aa 1-169); 6xHis tag + TEV cleavage site (N, cleaved yes); made in house; host or cells: E. coli BL21(DE3)
Experimental: The protein of interest was diluted with SEC Buffer [20 mM HEPES 7.5, 150 mM NaCl, 1 mM MgCl2] to 8 μM. This solution was dispensed into wells of a white 96-well PCR plate in triplicate (25 μL/well). Fluorescence was measured at 0.5° C. temperature intervals every 30 s from 25° C. to 95° C. on a Bio-Rad CFX96 qPCR system using the FRET setting. Each data set was normalized to the highest fluorescence and the normalized fluorescence reading was plotted against temperature in GraphPad Prism 8.0. Tm values were determined as the temperature(s) corresponding to the maximum(ma) of the first derivative of the curve.

[2] = test system: BaF3/G12R cells (±IL-3), TCC-Pan-2 cells, and A375 cells; test: Cellular activity (phospho-ERK immunoblot, growth inhibition); format: cell-based; details: at concentrations below 100 μM
Experimental: When indicated, cells were treated with drugs at 40-60% confluency at a final DMSO concentration of 1%. At the end of treatment period, cells were placed on ice. Unless otherwise indicated, adherent cells were washed once with ice-cold PBS (1 mL), scraped with a spatula, and pelleted by centrifugation (500×g, 5 min). Suspension cells were pelleted by centrifugation (500×g, 5 min), washed with 1 mL ice-cold PBS, and pelleted again. Cells were lysed in RIPA buffer supplemented with protease and phosphatase inhibitors (cOmplete and phosSTOP, Roche) on ice for 10 min. Lysates were clarified by high-speed centrifugation (19,000×g, 10 min). Concentrations of lysates were determined with protein BCA assay (Thermo Fisher) and adjusted to 2 mg/mL with additional RIPA buffer (or Co-IP Lysis Buffer). Samples were mixed with 5×SDS Loading Dye and heated at 95° C. for 5 min.
Cells were seeded into 96-well white flat bottom plates (1,000 cells/well) (Corning) and incubated overnight. Cells were treated with the indicated compounds in a nine-point threefold dilution series (100 μL final volume) and incubated for 72 h. Cell viability was assessed using a commercial CellTiter-Glo (CTG) luminescence-based assay (Promega). […] Plates were placed on an orbital shaker for 30 min before recording luminescence using a Spark 20M (Tecan) plate reader.

[3] = Stability in aqueous buffers; format: physicochemical; details: over a range of pH
[4] = target: K-Ras(G12R) (Homo sapiens, UniProt P01116, G12R); test: Lysate target engagement assay (anti-Ras immunoblot); format: binding; parameters: pMSCV-Puro plasmids containing full length human KRAS genes (G12R); expressed in transfected cells; host or cells: Ba/F3 (mouse) transduced with pMSCV-Puro KRAS(G12R); lysate
Experimental: For co-treatment with recombinant K-Ras(G12R), Ba/F3(G12R) cells were lysed with NP-40 buffer and adjusted to 1.5 mg/mL. A 0.1 μM solution of recombinant K-Ras(G12R) was prepared in NP-40 buffer. 18 μL of Ba/F3 lysate were added to 4 μL of a 0.5 mM solution of 3 containing 10% DMSO in NP-40 buffer or DMSO as control. 18 μL of recombinant K-Ras(G12R) solution or NP-40 was added and the mixtures were incubated for 16 h at 23° C. Subsequently samples were mixed with 5×SDS Loading Dye and heated at 95° C. for 5 min.
Unless otherwise noted, SDS-PAGE was run with Novex 12% Bis-Tris gel (Invitrogen) in MES running buffer (Invitrogen) at 200 V for 60 min following the manufacturer's instructions. Protein bands were transferred onto 0.2-μm nitrocellulose membranes (Bio-Rad) using a wet-tank transfer apparatus (Bio-Rad Criterion Blotter) in 1×TOWBIN buffer with 10% methanol at 75V for 45 min. Membranes were blocked in 5% BSA-TBST for 1 h at 23° C. Primary antibody binding was performed with the indicated antibodies diluted in 5% BSA-TBST at 4° C. for at least 16 h. After washing the membrane three times with TBST (5 min each wash), secondary antibodies (goat anti-rabbit IgG-IRDye 800 and goat anti-mouse IgG-IRDye 680, Li-COR) were added as solutions in 5% skim milk-TBST at the dilutions recommended by the manufacturer. Secondary antibody binding was allowed to proceed for 1 h at 23° C. The membrane was washed three times with TBST (5 min each wash) and imaged on a Li-COR Odyssey fluorescence imager.

**Q.** Which results are given for CC(=O)C(O)(O)C(=O)N1[C@@H]2CC[C@H]1CN(c1nc(OCC34CCCN3CCC4)nc3c(F)c(-c4cccc5cccc(Cl)c45)ncc13)C2 [compound 3, 1-((1R,5S)-3-(7-(8-chloronaphthalen-1-yl)-8-fluoro-2-((tetrahydro-1H-pyrrolizin-7a(5H)-yl)methoxy)pyrido[4,3-d]pyrimidin-4-yl)-3,8-diazabicyclo[3.2.1]octan-8-yl)-2,2-dihydroxybutane-1,3-dione]?
**A.** increase of melting temperature of K-Ras(G12R)·GDP·3 adduct vs unmodified K-Ras(G12R)·GDP [1]: 9.1 °C; cellular activity [2]: did not show cellular activity; stability in aqueous buffers [3]: stable; modification of exogenous recombinant K-Ras(G12R)·GDP added to lysate ([4]; after 16 h of incubation): complete modification; modification of endogenous K-Ras(G12R) in BaF3/K-Ras(G12R) lysates ([4]; lysate not pre-loaded with GDP): did not detect any modification; modification of endogenous K-Ras(G12R) in BaF3/K-Ras(G12R) lysates ([4]; lysates pre-loaded with excess GDP): covalent modification
